Measured values from patent publication US10344025B2, “GLS1 inhibitors for treating disease” (Board of Regents, The University of Texas System, priority 2014, dated 2019).
pEC50, pIC50: −log10 of the molar value.

Assays:
A549 cells = assay: Proliferation Assay (A549 viability, Cell Titer Fluor, 72 hours); assay type: cell-based; settings: Homo sapiens
Method in brief: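 A549 cells seeded at 1000 cells/well, rested 24 h, then exposed to compound in 0.5% DMSO for 72 h at 37 °C. Viability read by Cell Titer Fluor fluorescence; IC50 from four-parameter logistic fit.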

[1] = molecular target: purified recombinant human GAC (GLS1) (Homo sapiens (Human), UniProt O94925); assay: GLS1 Enzymatic Activity Assay (dual-coupled enzymatic assay, resorufin/Amplex UltraRed readout); assay type: biochemical;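 note: glutamate from GAC coupled via glutamate oxidase and peroxidase to resorufin, read as fluorescence (ex 530, em 590 nm) kinetically or at 20 min, four-parameter logistic IC50 fit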
Chain of purified recombinant human GAC (GLS1) (O94925 other isoform, or with tags, fused parts or gaps): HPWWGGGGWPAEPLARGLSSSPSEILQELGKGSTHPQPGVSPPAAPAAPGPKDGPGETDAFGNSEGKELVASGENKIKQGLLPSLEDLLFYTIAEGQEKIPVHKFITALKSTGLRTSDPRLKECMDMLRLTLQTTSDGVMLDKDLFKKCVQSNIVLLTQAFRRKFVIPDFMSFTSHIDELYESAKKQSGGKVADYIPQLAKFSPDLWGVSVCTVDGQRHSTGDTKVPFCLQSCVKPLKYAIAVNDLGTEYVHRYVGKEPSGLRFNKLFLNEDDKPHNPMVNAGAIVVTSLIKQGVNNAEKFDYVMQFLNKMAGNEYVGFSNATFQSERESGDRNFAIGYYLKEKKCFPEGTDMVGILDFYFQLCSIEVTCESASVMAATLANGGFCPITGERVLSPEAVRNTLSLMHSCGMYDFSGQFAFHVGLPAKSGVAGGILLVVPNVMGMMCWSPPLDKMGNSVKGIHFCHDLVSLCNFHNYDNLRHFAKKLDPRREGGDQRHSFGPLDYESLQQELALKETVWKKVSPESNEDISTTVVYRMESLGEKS

Structure (SMILES) | pEC50 (A549 cells; A549, 72 h) | pIC50 [1] | pEC50 (A549 cells)
O=C(NCc1cccc(OC(F)(F)F)c1)c1cn(CCCCc2nnc(C(=O)NCCN3CCCC3)s2)nn1 [Example 49, N-[2-(pyrrolidin-1-yl)ethyl]-5-{4-[4-({[3-(trifluoromethoxy)phenyl]methyl}carbamoyl)-1H-1,2,3-triazol-1-yl]butyl}-1,3,4-thiadiazole-2-carboxamide] | < 5.30 | 5.30 to 6.30 | 
O=C(NCc1cccc(OC(F)(F)F)c1)c1cn(CCCCc2nnc(C(=O)NCc3ccc(C(F)(F)F)cn3)s2)nn1 [Example 77, 5-{4-[4-({[3-(trifluoromethoxy)phenyl]methyl}carbamoyl)-1H-1,2,3-triazol-1-yl]butyl}-N-{[5-(trifluoromethyl)pyridin-2-yl]methyl}-1,3,4-thiadiazole-2-carboxamide] | > 7.00 | > 7.00 | 
O=C(Cc1cccc(OC(F)(F)F)c1)Nc1cn(CC(F)CCn2cc(C(=O)NCc3ccc(C(F)(F)F)nc3)nn2)nn1 (centres unmarked) [Example 411, 1-[3-fluoro-4-(4-{2-[3-(trifluoromethoxy)phenyl]acetamido}-1H-1,2,3-triazol-1-yl)butyl]-N-{[6-(trifluoromethyl)pyridin-3-yl]methyl}-1H-1,2,3-triazole-4-carboxamide] | > 7.00 | > 7.00 | 
Cc1ccc(CC(=O)Nc2cn(CC(F)CCn3cc(C(=O)NCc4cc(C(F)(F)F)ccn4)nn3)nn2)cn1 (centres unmarked) [Example 400, 1-(3-fluoro-4-{4-[2-(6-methylpyridin-3-yl)acetamido]-1H-1,2,3-triazol-1-yl}butyl)-N-{[4-(trifluoromethyl)pyridin-2-yl]methyl}-1H-1,2,3-triazole-4-carboxamide] | 6.30 to 7.00 | > 7.00 | 
O=C(NCc1cccc(OC(F)(F)F)c1)c1cn(CCCCn2cc(C(=O)NCc3cncc(N4CC(F)(F)C4)c3)nn2)nn1 [Example 146, N-{[5-(3,3-difluoroazetidin-1-yl)pyridin-3-yl]methyl}-1-{4-[4-({[3-(trifluoromethoxy)phenyl]methyl}carbamoyl)-1H-1,2,3-triazol-1-yl]butyl}-1H-1,2,3-triazole-4-carboxamide] | > 7.00 | > 7.00 | 
O=C(NCc1cccc(C(F)(F)F)n1)c1cn(CCC(F)Cn2cc(C(=O)NCc3cccc(OC(F)(F)F)c3)nn2)nn1 (centres unmarked) [Example 438, 1-{3-fluoro-4-[4-({[3-(trifluoromethoxy)phenyl]methyl}carbamoyl)-1H-1,2,3-triazol-1-yl]butyl}-N-{[6-(trifluoromethyl)pyridin-2-yl]methyl}-1H-1,2,3-triazole-4-carboxamide] | > 7.00 | > 7.00 | 
O=C(Cc1cc(OC(F)(F)F)ccc1F)Nc1cn(CCCCn2cc(C(=O)NCc3cc(C(F)(F)F)ccn3)nn2)nn1 [Example 413, 1-[4-(4-{2-[2-fluoro-5-(trifluoromethoxy)phenyl]acetamido}-1H-1,2,3-triazol-1-yl)butyl]-N-{[4-(trifluoromethyl)pyridin-2-yl]methyl}-1H-1,2,3-triazole-4-carboxamide] | > 7.00 | > 7.00 | 
O=C(NCc1ccccn1)c1cn(CCC(F)Cn2cc(C(=O)NCc3cc(OC(F)(F)F)ccc3F)nn2)nn1 (centres unmarked) [Example 373, 1-{3-fluoro-4-[4-({[2-fluoro-5-(trifluoromethoxy)phenyl]methyl}carbamoyl)-1H-1,2,3-triazol-1-yl]butyl}-N-(pyridin-2-ylmethyl)-1H-1,2,3-triazole-4-carboxamide] | > 7.00 | > 7.00 | 
O=C(Cc1ccccn1)Nc1cn(CCCCn2cc(C(=O)NCC3CCCCC3)nn2)nn1 [Example 285, N-(cyclohexylmethyl)-1-(4-{4-[2-(pyridin-2-yl)acetamido]-1H-1,2,3-triazol-1-yl}butyl)-1H-1,2,3-triazole-4-carboxamide] | 5.30 to 6.30 | 5.30 to 6.30 | 
O=C(NCc1ccc(C(F)(F)F)nc1)c1cn(CCC(F)Cn2cc(C(=O)NCc3cccc(OC(F)(F)F)c3)nn2)nn1 (centres unmarked) [Example 437, 1-{3-fluoro-4-[4-({[3-(trifluoromethoxy)phenyl]methyl}carbamoyl)-1H-1,2,3-triazol-1-yl]butyl}-N-{[6-(trifluoromethyl)pyridin-3-yl]methyl}-1H-1,2,3-triazole-4-carboxamide] | > 7.00 | > 7.00 | 
O=C(NCc1ccc(C(F)(F)F)cn1)c1cn(CCC(F)Cn2cc(C(=O)NCc3cccc(OC(F)(F)F)c3)nn2)nn1 (centres unmarked) [Example 433, 1-{2-fluoro-4-[4-({[5-(trifluoromethyl)pyridin-2-yl]methyl}carbamoyl)-1H-1,2,3-triazol-1-yl]butyl}-N-{[3-(trifluoromethoxy)phenyl]methyl}-1H-1,2,3-triazole-4-carboxamide] | > 7.00 | > 7.00 | 
O=C(NCc1cccc(OC(F)(F)F)c1)c1cn(CCC(F)Cn2cc(C(=O)N[C@@H](CO)c3ccccc3)nn2)nn1 (stereo partly drawn) [Example 461, 1-{2-fluoro-4-[4-({[3-(trifluoromethoxy)phenyl]methyl}carbamoyl)-1H-1,2,3-triazol-1-yl]butyl}-N-[(1R)-2-hydroxy-1-phenylethyl]-1H-1,2,3-triazole-4-carboxamide] | 5.30 to 6.30 | 6.30 to 7.00 | 
O=C(NCc1cc(C2CC2)ccn1)c1cn(CCC(F)Cn2cc(C(=O)NCc3cccc(OC(F)(F)F)c3)nn2)nn1 (centres unmarked) [Example 148, 1-[4-(4-({[4-cyclopropylpyridin-2-yl)methyl]carbamoyl}-1H-1,2,3-triazol-1-yl)-2-fluorobutyl]-N-{[3-(trifluoromethoxy)phenyl]methyl}-1H-1,2,3-triazole-4-carboxamide] | > 7.00 | > 7.00 | 
O=C(Cc1cccc(OC(F)(F)F)c1)Nc1cn(CCCCn2cc(C(=O)NCC3CCCC3)nn2)nn1 [Example 292, N-(cyclopentylmethyl)-1-[4-(4-{2-[3-(trifluoromethoxy)phenyl]acetamido}-1H-1,2,3-triazol-1-yl)butyl]-1H-1,2,3-triazole-4-carboxamide] | 5.30 to 6.30 | 6.30 to 7.00 | 
CNC(=O)c1cn(CCCCc2ccc(NC(=O)OC3CCCCC3)nn2)nn1 [Example 243, cyclohexyl (6-(4-(4-(methylcarbamoyl)-1H-1,2,3-triazol-1-yl)butyl)pyridazin-3-yl)carbamate] |  | 6.30 to 7.00 | 6.30 to 7.00
COCCOc1cccc(CNC(=O)c2cn(CCCCn3cc(C(=O)NCc4cc(C(F)(F)F)ccn4)nn3)nn2)c1 [Example 125, 1-{4-[4-({[3-(2-methoxyethoxy)phenyl]methyl}carbamoyl)-1H-1,2,3-triazol-1-yl]butyl}-N-{[4-(trifluoromethyl)pyridin-2-yl]methyl}-1H-1,2,3-triazole-4-carboxamide] | 6.30 to 7.00 | > 7.00 | 
Cc1ccc(CNC(=O)c2cn(CCC(F)Cn3cc(C(=O)NCc4cc(OC(F)(F)F)ccc4F)nn3)nn2)cn1 (centres unmarked) [Example 370, 1-{3-fluoro-4-[4-({[2-fluoro-5-(trifluoromethoxy)phenyl]methyl}carbamoyl)-1H-1,2,3-triazol-1-yl]butyl}-N-[(6-methylpyridin-3-yl)methyl]-1H-1,2,3-triazole-4-carboxamide] | > 7.00 | > 7.00 | 
O=C(NCc1cccc(OC(F)(F)F)c1)c1cn(CCCCn2cc(C(=O)NCc3cncc(C(F)(F)F)c3)nn2)nn1 [Example 80, N-(3-(trifluoromethoxy)benzyl)-1-(4-(4-(((5-(trifluoromethyl)pyridin-3-yl)methyl)carbamoyl)-1H-1,2,3-triazol-1-yl)butyl)-1H-1,2,3-triazole-4-carboxamide] | > 7.00 | > 7.00 | 
O=C(NCc1cccc(OC(F)(F)F)c1)c1cn(CCCCc2nnc(C(=O)NCc3cccc(OC(F)(F)F)c3)s2)nn1 [Example 46, N-{[3-(trifluoromethoxy)phenyl]methyl}-5-{4-[4-({[3-(trifluoromethoxy)phenyl]methyl}carbamoyl)-1H-1,2,3-triazol-1-yl]butyl}-1,3,4-thiadiazole-2-carboxamide] | > 7.00 | > 7.00 | 
O=C(Cc1cccc(OC(F)(F)F)c1)Nc1cn(CCCCn2cc(C(=O)NCC3CC3)nn2)nn1 [Example 301, N-(cyclopropylmethyl)-1-[4-(4-{2-[3-(trifluoromethoxy)phenyl]acetamido}-1H-1,2,3-triazol-1-yl)butyl]-1H-1,2,3-triazole-4-carboxamide] | 5.30 to 6.30 | 6.30 to 7.00 | 
C[C@@H](NC(=O)c1cn(CCC(F)Cn2cc(C(=O)NCc3cc(C(F)(F)F)ccn3)nn2)nn1)c1ccccc1 (stereo partly drawn) [Example 131, 1-[2-fluoro-4-(4-{[(1R)-1-phenylethyl]carbamoyl}-1H-1,2,3-triazol-1-yl)butyl]-N-{[4-(trifluoromethyl)pyridin-2-yl]methyl}-1H-1,2,3-triazole-4-carboxamide] | 6.30 to 7.00 | 6.30 to 7.00 | 
CC(=O)Nc1nnc(CCC(F)Cn2cc(C(=O)NCc3cc(C(F)(F)F)ccn3)nn2)s1 (centres unmarked) [Example 567, 1-(4-(5-acetamido-1,3,4-thiadiazol-2-yl)-2-fluorobutyl)-N-((4-(trifluoromethyl)pyridin-2-yl)methyl)-1H-1,2,3-triazole-4-carboxamide] | 6.30 to 7.00 | > 7.00 | 
CNC(=O)c1cn(CCC(F)Cn2cc(C(=O)NCc3ccccc3)nn2)nn1 (centres unmarked) [Example 165, 1-{4-[4-(benzylcarbamoyl)-1H-1,2,3-triazol-1-yl]-3-fluorobutyl}-N-methyl-1H-1,2,3-triazole-4-carboxamide] | 5.30 to 6.30 | 6.30 to 7.00 | 
O=C(Cc1cccc(OC(F)(F)F)c1)Nc1cn(CC(F)CCn2cc(C(=O)NCc3cc(OC(F)(F)F)ccc3F)nn2)nn1 (centres unmarked) [Example 340, 1-[3-fluoro-4-(4-{2-[3-(trifluoromethoxy)phenyl]acetamido}-1H-1,2,3-triazol-1-yl)butyl]-N-{[2-fluoro-5-(trifluoromethoxy)phenyl]methyl}-1H-1,2,3-triazole-4-carboxamide] | > 7.00 | > 7.00 | 
O=C(Cc1cc(OC(F)(F)F)ccc1F)Nc1nnc(CCC(F)Cn2cc(C(=O)NCc3cccnc3)nn2)s1 (centres unmarked) [Example 218, 1-(2-fluoro-4-(5-(2-(2-fluoro-5-(trifluoromethoxy)phenyl)acetamido)-1,3,4-thiadiazol-2-yl)butyl)-N-(pyridin-3-ylmethyl)-1H-1,2,3-triazole-4-carboxamide] | > 7.00 | > 7.00 | 
